According to PubChem BioAssay (NCI):
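Compound exposure: 48 hours, 5 concentrations, 96-well plates. TGI is the concentration that stops growth completely.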

Key:
Test in all cases: NCI tumour cell line growth inhibition, 48 h
HOP-18 NSCLC = system: HOP-18 NSCLC
A549 NSCLC = system: A549 NSCLC
SK-MEL-5 melanoma = system: SK-MEL-5 melanoma
SF-539 CNS = system: SF-539 CNS
OVCAR-4 ovarian = system: OVCAR-4 ovarian
DMS 114 small cell lung = system: DMS 114 small cell lung
CAKI-1 renal = system: CAKI-1 renal
XF 498 CNS = system: XF 498 CNS
SN12K1 renal = system: SN12K1 renal
NCI-H226 lung = system: NCI-H226 lung
OVCAR-8 ovarian = system: OVCAR-8 ovarian
P388/ADR leukemia = system: P388/ADR leukemia
SW-620 colon = system: SW-620 colon
HOP-92 NSCLC = system: HOP-92 NSCLC
MCF7 breast = system: MCF7 breast
TK-10 renal = system: TK-10 renal
SR leukemia = system: SR leukemia
RXF-631 renal = system: RXF-631 renal
SK-OV-3 ovarian = system: SK-OV-3 ovarian
LXFL 529 NSCLC = system: LXFL 529 NSCLC

Row | Structure (SMILES) | TGI (HOP-18 NSCLC) [µM] | TGI (A549 NSCLC) [µM] | TGI (SK-MEL-5 melanoma) [µM] | TGI (SF-539 CNS) [µM] | TGI (OVCAR-4 ovarian) [µM] | TGI (DMS 114 small cell lung) [µM] | TGI (CAKI-1 renal) [µM] | TGI (XF 498 CNS) [µM] | TGI (SN12K1 renal) [µM] | TGI (NCI-H226 lung) [µM] | TGI (OVCAR-8 ovarian) [µM] | TGI (P388/ADR leukemia) [µM] | TGI (SW-620 colon) [µM] | TGI (HOP-92 NSCLC) [µM] | TGI (MCF7 breast) [µM] | TGI (TK-10 renal) [µM] | TGI (SR leukemia) [µM] | TGI (RXF-631 renal) [µM] | TGI (SK-OV-3 ovarian) [µM] | TGI (LXFL 529 NSCLC) [µM]
1 | CC(C)=CC(=O)OC1C2C(C)=CC(O)C(O)C2(C)C2C3(O)OCC24C(CC(=O)OC14)C(C)C3O (centres undefined) | 7.58 | 9.68 | 0.064 | 0.187 | 0.749 | 0.0567 | 13.9 | 0.587 | 0.0909 | 0.388 | 0.82 | 7.09 | 4.81 | 0.26 | 0.107 | – | – | – | – | –
2 | COc1cc(/C=C/C2=C(C#N)C(=O)OC2(C)C)ccc1O | > 100 | > 100 | > 100 | – | – | – | > 100 | – | – | > 100 | > 100 | – | > 100 | > 100 | – | > 100 | 67.3 | > 100 | > 100 | –
3 | Nc1n[nH]c(CCCCCCCc2nc(N)n[nH]2)n1 | – | – | – | > 100 | > 100 | > 100 | – | – | – | – | – | – | – | – | – | > 100 | > 100 | – | > 100 | > 100
